# Entries after “also recorded” stand apart in the source; their conditions may differ. Ends that are not written are not given here.
# Columns and labels:
# human beta cells [1] = assay: Ki67-insulin immunolabeling of dispersed human islet cells (beta cell proliferation); conditions: for actual Ki67% values: DYRK1A inhibitor alone, dispersed human islets, 96 hours, FIG. 1F; for synergy of DYRK1A inhibitor with GLP1 on beta cell proliferation: in combination with GLP1, FIGS. 1F, 4; for ability to replace or mimic GLP1 in harmine-GLP1 proliferation: agent administered together with harmine, FIGS. 5A-5C, 5E, 5F; for proliferation, agent alone at low dose: harmine 1 μM alone or GLP1 alone, FIG. 3E; for synergy of GLP1R agonist with harmine on beta cell proliferation: in combination with harmine, FIG. 1G
# Description: (§3) Human Islets: Human islets from 81 normal donors were obtained through the NIH-supported Integrated Islet Distribution Program (IIDP), the Alberta Diabetes Institute Islet Core at the University of Alberta, and the Clinical Islet Laboratory, University of Alberta Hospital. Islets were harvested from pancreata from deceased organ donors without any identifying information with informed consent and IRB approval at the islet-isolating centers. […] In addition, islets were obtained from 11 donors with Type 2 diabetes. […] Three were known to be on diabetes medications (metformin n=3, DPP4 inhibitor n=1). […] Whole islets were pelleted by centrifugation at 200×G and washed twice in PBS. Islets were then incubated in Accutase for 15-17 minutes at 37° C. and completely dispersed to single cells by pipette trituration. Single islet cells were pelleted by centrifugation at 700×G and re-suspended in islet culture medium.
# (§4) Compound Treatments: Dispersed islets were plated on poly-D-lysine-laminin-coated glass chamber slides or coverslips. Cells derived from 20-30 IEQ dispersed cells were seeded per well, and allowed to recover for 24 hr prior to compound treatment. Cells were treated for 96 hours prior to Ki67 staining, BrdU staining or TUNEL labeling.
# Antibodies were diluted in blocking buffer (5% normal goat serum (NGS), 1% bovine serum albumin (BSA), 0.5% Triton, in PBS). […] BrdU (Cell Proliferation Labelling Reagent. Amersham GE Healthcare. GE: RPN201) was added to each treatment at a 1:100 dilution, 18 hours prior to fixation. Antigen retrieval for BrdU immunostaining was performed following fixation using 1N HCl at 37° C. for 30 minutes before primary antibody incubation.
# delta (SST+) cells = assay: BrdU labeling in delta (SST+) cells of dispersed human islets; type: cell-based
# Description: (§1) Primary and secondary antisera used are listed below.
# PDX1, MAFA, and NKX6.1 = conditions: normal donors, FIG. 8B
# Description: Antibodies were diluted in blocking buffer (5% normal goat serum (NGS), 1% bovine serum albumin (BSA), 0.5% Triton, in PBS). Primary and secondary antisera used are listed below. BrdU (Cell Proliferation Labelling Reagent. Amersham GE Healthcare. GE: RPN201) was added to each treatment at a 1:100 dilution, 18 hours prior to fixation. Antigen retrieval for BrdU immunostaining was performed following fixation using 1N HCl at 37° C. for 30 minutes before primary antibody incubation. Cells were incubated with primary and secondary antibodies according to Table 4 below before counterstained with DAPI.
# human beta cells [2] = assay: TUNEL assay of beta cell death; type: cell-based; conditions: 96 hours, FIGS. 10C-10D
# Description: as §1
# [3] = system: markers of beta cell differentiation; assay: qPCR of differentiation markers in islets from donors with T2D; type: cell-based, human; conditions: FIG. 9A
# Description: Purity ranged from 55% to 85%.
# (§2) Primers are shown below in Tables 5 and 6.
# T2D beta cells = conditions: FIGS. 9D-9E
# Description: as §3, §4
# Antibodies were diluted in blocking buffer (5% normal goat serum (NGS), 1% bovine serum albumin (BSA), 0.5% Triton, in PBS). […]
# alpha (GCG+) cells = assay: BrdU labeling in alpha (GCG+) cells of dispersed human islets; type: cell-based
# Description: as §1
# ductal (CK19+) cells = assay: BrdU labeling in ductal (CK19+) cells of dispersed human islets; type: cell-based
# Description: as §1
# beta (INS+) cells = assay: BrdU labeling in beta (INS+) cells of dispersed human islets; type: cell-based
# Description: as §1
# cell cycle molecules = assay: qPCR of cell cycle activators and inhibitors in human islets; type: cell-based; conditions: GLP1 added to harmine, vs harmine alone, 72 hours
# Description: as §2
# [4] = GLP1 added to harmine, vs harmine alone
compound,measurement,setting,value
"Nc1ncnc2c1c(I)cn2[C@@H]1O[C@H](CO)[C@@H](O)[C@H]1O [5-IT, 5-iodotubercidin]",actual Ki67% values,human beta cells [1],2.6%
same,synergy of DYRK1A inhibitor with GLP1 on beta cell proliferation,human beta cells [1],synergistic
CC(C)Oc1ccc(F)c(-c2cnc(N)c(C(=O)Nc3cnccc3N3CCC[C@@H](C(=O)O)C3)n2)c1 [GNF4877],actual Ki67% values,human beta cells [1],2.9%
same,synergy of DYRK1A inhibitor with GLP1 on beta cell proliferation,human beta cells [1],synergistic
O=S(=O)(NCCNC/C=C/c1ccc(Br)cc1)c1cccc2cnccc12 [H89],"effect on human beta cell proliferation, agent administered alone",human beta cells [1],no effect on its own
"CC(C)Cn1c(=O)n(C)c(=O)c2[nH]cnc21 [IBMX, 3-Isobutyl-1-methylxanthine]",ability to replace or mimic GLP1 in harmine-GLP1 proliferation,human beta cells [1],mimicked; also recorded: can replace GLP1
same,"effect on human beta cell proliferation, agent administered alone",human beta cells [1],no effect on proliferation
CCN1/C(=C/C(C)=O)Sc2ccc(O)cc21 [INDY],actual Ki67% values,human beta cells [1],1.7%
same,synergy of DYRK1A inhibitor with GLP1 on beta cell proliferation,human beta cells [1],synergistic
"CCCC(=O)Nc1ncnc2c1ncn2[C@@H]1O[C@@H]2COP(=O)(O)O[C@H]2[C@H]1OC(=O)CCC [di-butyryl cAMP, dibutyryl cAMP]",ability to replace or mimic GLP1 in harmine-GLP1 proliferation,human beta cells [1],can replace GLP1
same,ability to replace or mimic GLP1 in harmine-GLP1 proliferation,human beta cells [1]; listed as dibutyryl-cyclicAMP,mimicked
same,"effect on human beta cell proliferation, agent administered alone",human beta cells [1],no effect on proliferation
OCCN(CCO)c1nc(N2CCCCC2)c2nc(N(CCO)CCO)nc(N3CCCCC3)c2n1 [dipyridamole],ability to replace or mimic GLP1 in harmine-GLP1 proliferation,human beta cells [1],mimicked; also recorded: can replace GLP1
same,"effect on human beta cell proliferation, agent administered alone",human beta cells [1],no effect on proliferation
COc1ccc2c(c1)[nH]c1c(C)nccc12 [harmine],proliferation (BrdU) in delta cells,delta (SST+) cells; harmine alone,activates proliferation
same,"PDX1, MAFA and NKX6.1 proteins in beta cells","PDX1, MAFA, and NKX6.1",increases in beta cell nuclei
same,markers of beta cell death (TUNEL),human beta cells [2],Neither harmine nor the harmine-GLP1 combination treatment induced markers of beta cell death
same,expression of differentiation markers (qPCR),[3],did not have adverse effects on differentiation
same,expression of differentiation markers (qPCR),[3]; listed as Harmine,"increased the expression of PDX1, MAFB, NKX6.1, GLUT2, GLP1R, and PCSK1"
same,beta cell proliferation (Ki67 immunolabeling),T2D beta cells,activated beta cell proliferation in T2D beta cells
same,proliferation (BrdU) in alpha cells,alpha (GCG+) cells; harmine alone,activates proliferation
same,proliferation (BrdU) in ductal cells,ductal (CK19+) cells; harmine alone,activates proliferation
same,proliferation (BrdU) in beta cells,beta (INS+) cells; harmine alone,activates proliferation
same,actual Ki67% values,human beta cells [1],2.1%
same,"proliferation, agent alone at low dose",human beta cells [1],little or no proliferation
same,human beta cell proliferation (Ki67 in insulin-positive cells),human beta cells [1]; harmine alone,~2%
same,actual Ki67% value,"human beta cells [1]; harmine alone, experiments of FIG. 1G",2.2%
O=C1NC(Nc2ccccc2)=N/C1=C\c1ccc2c(c1)OCO2 [leucettine],actual Ki67% values,human beta cells [1],2.8%
same,synergy of DYRK1A inhibitor with GLP1 on beta cell proliferation,human beta cells [1],synergistic
"GLP1(7-36)amide (HAEGTFTSDVSSYLEGQAAKEFIAWLVKGR-NH2; UniProt P01275 98-127, looked up)",change to cell cycle activators or inhibitors (qPCR),cell cycle molecules,no incremental change to cell cycle activators or inhibitors
same,proliferation (BrdU) in delta cells,delta (SST+) cells; [4],no additional effect
same,proliferation (BrdU) in alpha cells,alpha (GCG+) cells; [4],no additional effect
same,proliferation (BrdU) in ductal cells,ductal (CK19+) cells; [4],further increased proliferation; also recorded: accentuates
same,proliferation (BrdU) in beta cells,beta (INS+) cells; [4],further increased proliferation; also recorded: accentuates
same,"effect on human beta cell proliferation, agent administered alone",human beta cells [1],negligible effects
same,"proliferation, agent alone at low dose",human beta cells [1],little or no proliferation
same,synergy of GLP1R agonist with harmine on beta cell proliferation,human beta cells [1],synergy was also apparent
"exendin-4: GLP1R agonist (11940, Cayman)",synergy of GLP1R agonist with harmine on beta cell proliferation,human beta cells [1],synergy was also apparent
lixisenatide: GLP1R agonist,synergy of GLP1R agonist with harmine on beta cell proliferation,human beta cells [1],synergy was also apparent
